Test results as given in US9168317B2, “In vivo imaging method of mood disorders” (GE Healthcare Limited, priority 2010, dated 2015).
Read-outs that look alike come from different tables or passages of the source.

Columns and labels:
Wistar rat heart PBR = target: T1, Wistar rat heart PBR (Rattus norvegicus, UniProt P16257); test: In vitro potency assay: competition against 0.3 nM [3H]PK-11195 binding
T1 construct: from tissue; host or cells: Wistar rat heart
Method: Non-radioactive analogues of in vivo imaging agents of the invention were tested.
Each test compound (dissolved in 50 mM Tris-HCl, pH 7.4, 10 mM MgCl2 containing 1% DMSO) competed for binding to Wistar rat heart PBR against 0.3 nM [^3H] […] The reaction, was carried out in 50 mM Tris-HCl, pH 7.4 10 mM MgCl2 for 15 minutes at 25° C.

[1] = In vivo biodistribution method; details: for Brain 2 min / OB 30 min: adult male Wistar rats, 1-3 MBq via lateral tail vein; for Brain 2 min: 2 min after injection; for OB 30 min: olfactory bulb
Method: Imaging agents of the invention were tested in an in vivo biodistribution model.
Adult male Wistar rats (200-300 g) were injected with 1-3 MBq of test compound via the lateral tail vein. At 2, 10, 30 or 60 min (n=3) after injection, rats were euthanised and tissues or fluids were sampled for radioactive measurement on a gamma counter.

| SMILES | Ki (Wistar rat heart PBR) [nM] | Ki (Wistar rat heart PBR; non-radioactive analogues, vs 0.3 nM [3H]PK-11195, 50 mM Tris-HCl pH 7.4, 10 mM MgCl2, 15 minutes at 25° C., read-out: Ki) [nM] | Brain 2 min [1] [% ID/g] | OB 30 min ([1]; 30 min after injection) [% ID/g] | OB:Str 30 min ([1]; ratio olfactory bulb:striatum, 30 min after injection, Wistar rats) |
| --- | --- | --- | --- | --- | --- |
| O=C(C1CCCc2c1c1ccccc1n2CC[18F])N1CCCCC1 (centres unmarked) [compound 6] | 18.3 |  |  |  |  |
| CCN(CC)C(=O)C1CCCc2c1c1c(OC)cccc1n2CC[18F] (centres unmarked) [compound 5] |  | 1.47 |  |  |  |
| CCN(CC)C(=O)C1CCCc2c1c1c(F)cccc1n2CC[18F] (centres unmarked) [compound 10] |  |  | 0.50 | 0.51 |  |
| CCN(CC)C(=O)C1CCCc2c1c1cc(F)ccc1n2CC[18F] (centres unmarked) [compound 9] | 3.79 |  | 0.56 | 0.41 |  |
| CN(Cc1ccccc1)C(=O)C1CCCc2c1c1ccccc1n2CC[18F] (centres unmarked) [compound 7] | 1.25 |  | 0.55 | 0.34 | 3.40 |
